Results as given in ChEMBL document CHEMBL5649166, “RIP3 induces apoptosis independent of pronecrotic kinase activity” (Mol Cell, 2014).

Columns and labels:
[1] = target: Myosin light chain kinase 2, skeletal/cardiac muscle (Homo sapiens) (UniProt Q9H1R3); test: Residual activity of human MLCK2/MYLK2 using KKLNRTLSFAEPG as substrate at 1 uM in presence of 32P-ATP by Hotspot assay relative to control
[2] = target: G protein-coupled receptor kinase 4 (Homo sapiens) (UniProt P32298); test: Inhibition of human GRK4 using casein as substrate at 1 uM in presence of 32P-ATP by Hotspot assay relative to control; values are per cent of control
[3] = target: T1, cGMP-dependent protein kinase 1 (Homo sapiens) (UniProt Q13976); test: Inhibition of human PKG1b using LRRASLG as substrate at 1 uM in presence of 32P-ATP by Hotspot assay relative to control; values are per cent of control
T1 sequence (whole entry): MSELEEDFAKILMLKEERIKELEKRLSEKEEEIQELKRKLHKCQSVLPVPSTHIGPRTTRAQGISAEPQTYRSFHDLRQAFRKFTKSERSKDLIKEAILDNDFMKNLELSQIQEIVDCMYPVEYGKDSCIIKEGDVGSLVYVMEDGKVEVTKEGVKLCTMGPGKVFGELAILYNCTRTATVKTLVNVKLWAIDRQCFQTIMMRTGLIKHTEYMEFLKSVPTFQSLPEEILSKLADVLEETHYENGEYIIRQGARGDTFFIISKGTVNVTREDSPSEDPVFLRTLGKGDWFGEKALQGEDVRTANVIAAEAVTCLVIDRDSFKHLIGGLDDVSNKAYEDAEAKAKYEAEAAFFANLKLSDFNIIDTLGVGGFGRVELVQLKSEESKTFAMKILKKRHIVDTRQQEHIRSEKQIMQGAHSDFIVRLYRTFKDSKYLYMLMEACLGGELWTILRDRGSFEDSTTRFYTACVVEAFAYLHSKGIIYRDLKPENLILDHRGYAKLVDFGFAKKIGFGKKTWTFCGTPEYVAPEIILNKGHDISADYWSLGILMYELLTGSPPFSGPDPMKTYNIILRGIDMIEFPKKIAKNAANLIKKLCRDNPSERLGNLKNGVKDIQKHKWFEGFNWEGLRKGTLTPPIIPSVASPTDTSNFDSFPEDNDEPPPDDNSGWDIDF

[4] = target: Serine/threonine-protein kinase PAK 1 (Homo sapiens) (UniProt Q13153); test: Inhibition of human PAK1 using RRRLSFAEPG as substrate at 1 uM in presence of 32P-ATP by Hotspot assay relative to control; values are per cent of control
[5] = target: T2, Dual specificity mitogen-activated protein kinase kinase 6 (Homo sapiens) (UniProt P52564); test: Inhibition of human MKK6 using p38a (K53A) as substrate at 1 uM in presence of 32P-ATP by Hotspot assay relative to control; values are per cent of control
T2 sequence (whole entry): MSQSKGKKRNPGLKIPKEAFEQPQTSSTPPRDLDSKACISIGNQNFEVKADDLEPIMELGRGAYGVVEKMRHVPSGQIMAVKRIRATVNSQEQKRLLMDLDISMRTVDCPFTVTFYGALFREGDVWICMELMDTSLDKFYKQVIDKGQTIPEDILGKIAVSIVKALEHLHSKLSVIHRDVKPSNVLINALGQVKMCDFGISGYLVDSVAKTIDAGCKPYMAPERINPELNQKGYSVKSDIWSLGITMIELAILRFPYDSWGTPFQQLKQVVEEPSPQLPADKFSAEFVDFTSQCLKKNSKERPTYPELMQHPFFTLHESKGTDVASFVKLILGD

[6] = target: MAP kinase-activated protein kinase 3 (Homo sapiens) (UniProt Q16644); test: Inhibition of human MAPKAPK3 using KKLNRTLSVA as substrate at 1 uM in presence of 32P-ATP by Hotspot assay relative to control; values are per cent of control
[7] = target: Calcium/calmodulin-dependent protein kinase type 1B (Homo sapiens) (UniProt Q6P2M8); test: Inhibition of human CAMK1b using KKALRRQETVDAL as substrate at 1 uM in presence of 32P-ATP by Hotspot assay relative to control; values are per cent of control
[8] = target: Serine/threonine-protein kinase N2 (Homo sapiens) (UniProt Q16513); test: Inhibition of human PKN2/PRK2 using KKLNRTLSVA as substrate at 1 uM in presence of 32P-ATP by Hotspot assay relative to control; values are per cent of control
[9] = target: Casein kinase I isoform gamma-1 (Homo sapiens) (UniProt Q9HCP0); test: Inhibition of human CK1g1 using KRRRAL[pS]VASLPGL as substrate at 1 uM in presence of 32P-ATP by Hotspot assay relative to control; values are per cent of control
[10] = target: Casein kinase I isoform gamma-3 (Homo sapiens) (UniProt Q9Y6M4); test: Inhibition of human CK1g3 using KRRRAL[pS]VASLPGL as substrate at 1 uM in presence of 32P-ATP by Hotspot assay relative to control; values are per cent of control
[11] = target: Mitogen-activated protein kinase kinase kinase 8 (Homo sapiens) (UniProt P41279); test: Inhibition of human COT1/MAP3K8 using MEK1 (K97R) as substrate at 1 uM in presence of 32P-ATP by Hotspot assay relative to control; values are per cent of control
[12] = target: Fibroblast growth factor receptor 1 (Homo sapiens) (UniProt P11362); test: Inhibition of human FGFR1 using poly[Glu:Tyr] (4:1) as substrate at 1 uM in presence of 32P-ATP by Hotspot assay relative to control; values are per cent of control
[13] = target: T3, Lymphokine-activated killer T-cell-originated protein kinase (Homo sapiens) (UniProt Q96KB5); test: Inhibition of human PBK/TOPK using myelin basic protein as substrate at 1 uM in presence of 32P-ATP by Hotspot assay relative to control; values are per cent of control
T3 sequence (whole entry): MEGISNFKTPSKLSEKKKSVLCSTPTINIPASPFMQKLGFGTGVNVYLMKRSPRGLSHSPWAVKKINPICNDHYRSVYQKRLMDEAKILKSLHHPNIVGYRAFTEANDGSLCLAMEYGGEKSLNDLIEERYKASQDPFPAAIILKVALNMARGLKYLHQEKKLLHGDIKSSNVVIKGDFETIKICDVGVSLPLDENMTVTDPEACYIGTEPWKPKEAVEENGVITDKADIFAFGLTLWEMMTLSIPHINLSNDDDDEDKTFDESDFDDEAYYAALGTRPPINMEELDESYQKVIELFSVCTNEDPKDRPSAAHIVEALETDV

Sequence of Serine/threonine-protein kinase PAK 1 (Homo sapiens) (Q13153 whole entry): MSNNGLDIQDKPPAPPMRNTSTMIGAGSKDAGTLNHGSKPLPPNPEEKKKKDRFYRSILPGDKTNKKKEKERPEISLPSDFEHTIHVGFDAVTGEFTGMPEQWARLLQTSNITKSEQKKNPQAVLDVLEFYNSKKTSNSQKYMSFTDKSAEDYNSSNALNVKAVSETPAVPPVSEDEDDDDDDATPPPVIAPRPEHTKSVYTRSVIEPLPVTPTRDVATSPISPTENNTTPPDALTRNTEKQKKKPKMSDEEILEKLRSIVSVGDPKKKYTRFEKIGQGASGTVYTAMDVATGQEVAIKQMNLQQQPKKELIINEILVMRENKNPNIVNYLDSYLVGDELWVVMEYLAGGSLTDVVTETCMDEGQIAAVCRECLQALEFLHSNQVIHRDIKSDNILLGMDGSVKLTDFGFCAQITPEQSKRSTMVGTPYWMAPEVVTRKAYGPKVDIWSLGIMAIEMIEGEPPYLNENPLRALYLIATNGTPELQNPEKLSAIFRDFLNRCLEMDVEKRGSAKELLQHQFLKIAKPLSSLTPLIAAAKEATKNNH
Sequence of MAP kinase-activated protein kinase 3 (Homo sapiens) (Q16644 whole entry, looked up): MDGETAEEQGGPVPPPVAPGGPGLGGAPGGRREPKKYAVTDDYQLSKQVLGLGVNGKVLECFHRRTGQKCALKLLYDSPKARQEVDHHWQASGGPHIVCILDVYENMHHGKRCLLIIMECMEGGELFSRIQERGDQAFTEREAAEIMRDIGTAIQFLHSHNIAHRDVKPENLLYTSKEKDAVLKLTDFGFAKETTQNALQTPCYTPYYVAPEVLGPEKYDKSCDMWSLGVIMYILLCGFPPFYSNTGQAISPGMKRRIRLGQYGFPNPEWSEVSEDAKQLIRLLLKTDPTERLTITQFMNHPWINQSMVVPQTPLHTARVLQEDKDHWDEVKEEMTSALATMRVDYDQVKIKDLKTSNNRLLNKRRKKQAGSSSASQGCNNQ
Sequence of Fibroblast growth factor receptor 1 (Homo sapiens) (P11362 22-822 limits assumed): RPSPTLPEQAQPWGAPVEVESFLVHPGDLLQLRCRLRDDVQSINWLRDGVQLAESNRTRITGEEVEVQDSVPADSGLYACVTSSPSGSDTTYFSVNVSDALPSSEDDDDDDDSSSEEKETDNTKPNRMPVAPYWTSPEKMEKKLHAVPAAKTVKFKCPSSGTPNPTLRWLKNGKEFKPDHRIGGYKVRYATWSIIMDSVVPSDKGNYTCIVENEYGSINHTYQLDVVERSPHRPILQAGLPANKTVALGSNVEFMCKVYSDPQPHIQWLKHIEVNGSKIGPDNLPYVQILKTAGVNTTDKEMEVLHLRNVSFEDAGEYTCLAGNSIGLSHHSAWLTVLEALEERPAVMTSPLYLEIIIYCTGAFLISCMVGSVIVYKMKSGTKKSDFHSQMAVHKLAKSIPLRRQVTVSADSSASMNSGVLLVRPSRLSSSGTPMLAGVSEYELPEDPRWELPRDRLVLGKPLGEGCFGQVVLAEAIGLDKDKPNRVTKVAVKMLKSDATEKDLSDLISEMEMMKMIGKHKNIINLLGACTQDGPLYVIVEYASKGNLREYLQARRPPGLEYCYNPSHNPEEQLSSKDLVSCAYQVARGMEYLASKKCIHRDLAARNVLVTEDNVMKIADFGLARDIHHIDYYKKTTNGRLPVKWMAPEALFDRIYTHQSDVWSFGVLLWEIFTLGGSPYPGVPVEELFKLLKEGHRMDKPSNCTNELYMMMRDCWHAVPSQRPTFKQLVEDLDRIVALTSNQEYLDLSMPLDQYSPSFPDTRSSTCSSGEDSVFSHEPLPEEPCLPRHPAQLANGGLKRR
Sequence of G protein-coupled receptor kinase 4 (Homo sapiens) (P32298 whole entry, looked up): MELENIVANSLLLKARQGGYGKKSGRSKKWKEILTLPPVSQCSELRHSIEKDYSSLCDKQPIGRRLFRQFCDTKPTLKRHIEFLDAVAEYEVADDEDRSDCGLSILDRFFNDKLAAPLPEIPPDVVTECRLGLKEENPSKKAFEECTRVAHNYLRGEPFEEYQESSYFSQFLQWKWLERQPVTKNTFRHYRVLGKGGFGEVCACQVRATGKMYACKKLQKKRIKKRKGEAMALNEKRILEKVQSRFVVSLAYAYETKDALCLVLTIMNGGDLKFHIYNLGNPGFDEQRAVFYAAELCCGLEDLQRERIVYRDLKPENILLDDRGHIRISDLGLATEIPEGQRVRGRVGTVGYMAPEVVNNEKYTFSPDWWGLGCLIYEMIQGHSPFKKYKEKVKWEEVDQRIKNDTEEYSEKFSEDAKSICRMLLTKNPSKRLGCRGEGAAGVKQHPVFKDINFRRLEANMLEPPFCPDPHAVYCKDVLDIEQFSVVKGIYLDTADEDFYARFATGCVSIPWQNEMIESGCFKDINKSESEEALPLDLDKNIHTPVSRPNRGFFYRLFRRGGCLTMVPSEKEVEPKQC
Sequence of Serine/threonine-protein kinase N2 (Homo sapiens) (Q16513 whole entry, looked up, canonical isoform): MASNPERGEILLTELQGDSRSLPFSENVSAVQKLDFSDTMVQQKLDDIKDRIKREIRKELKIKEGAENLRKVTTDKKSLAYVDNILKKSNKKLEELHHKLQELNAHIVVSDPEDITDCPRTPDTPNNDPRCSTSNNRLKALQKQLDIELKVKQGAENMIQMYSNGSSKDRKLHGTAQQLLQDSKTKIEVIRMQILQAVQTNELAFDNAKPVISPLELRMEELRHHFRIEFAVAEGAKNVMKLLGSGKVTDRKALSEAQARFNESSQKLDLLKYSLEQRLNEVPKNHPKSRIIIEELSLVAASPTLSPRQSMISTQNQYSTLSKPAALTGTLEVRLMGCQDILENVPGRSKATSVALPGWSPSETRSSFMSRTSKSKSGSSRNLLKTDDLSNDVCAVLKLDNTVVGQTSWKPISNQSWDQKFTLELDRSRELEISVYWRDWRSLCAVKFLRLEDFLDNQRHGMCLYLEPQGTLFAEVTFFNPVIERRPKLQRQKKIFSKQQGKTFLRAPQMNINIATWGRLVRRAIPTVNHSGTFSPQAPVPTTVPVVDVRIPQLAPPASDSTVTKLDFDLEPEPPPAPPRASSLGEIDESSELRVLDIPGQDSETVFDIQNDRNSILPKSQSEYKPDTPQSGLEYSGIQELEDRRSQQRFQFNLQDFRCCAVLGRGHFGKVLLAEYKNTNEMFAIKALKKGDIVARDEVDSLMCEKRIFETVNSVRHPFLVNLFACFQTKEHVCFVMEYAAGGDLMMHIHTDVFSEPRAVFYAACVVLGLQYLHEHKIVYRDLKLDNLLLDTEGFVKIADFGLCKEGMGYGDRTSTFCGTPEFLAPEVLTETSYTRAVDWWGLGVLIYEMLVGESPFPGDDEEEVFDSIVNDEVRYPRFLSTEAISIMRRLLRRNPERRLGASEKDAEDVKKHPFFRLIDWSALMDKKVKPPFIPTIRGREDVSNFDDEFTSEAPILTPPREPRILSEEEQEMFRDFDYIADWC
Sequence of Mitogen-activated protein kinase kinase kinase 8 (Homo sapiens) (P41279 whole entry): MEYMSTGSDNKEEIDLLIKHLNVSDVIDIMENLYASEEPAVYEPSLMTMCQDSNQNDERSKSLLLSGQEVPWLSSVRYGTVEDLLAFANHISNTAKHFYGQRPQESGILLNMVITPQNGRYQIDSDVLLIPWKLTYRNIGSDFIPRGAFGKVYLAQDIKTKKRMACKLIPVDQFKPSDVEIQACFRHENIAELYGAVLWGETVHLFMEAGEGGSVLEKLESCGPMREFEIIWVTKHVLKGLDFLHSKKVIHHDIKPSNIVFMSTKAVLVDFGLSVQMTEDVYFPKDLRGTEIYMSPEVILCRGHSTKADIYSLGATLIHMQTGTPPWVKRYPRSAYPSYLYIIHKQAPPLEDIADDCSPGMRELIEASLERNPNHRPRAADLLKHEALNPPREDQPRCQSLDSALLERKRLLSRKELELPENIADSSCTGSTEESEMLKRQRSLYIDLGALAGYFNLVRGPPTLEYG
Sequence of Calcium/calmodulin-dependent protein kinase type 1B (Homo sapiens) (Q6P2M8 whole entry): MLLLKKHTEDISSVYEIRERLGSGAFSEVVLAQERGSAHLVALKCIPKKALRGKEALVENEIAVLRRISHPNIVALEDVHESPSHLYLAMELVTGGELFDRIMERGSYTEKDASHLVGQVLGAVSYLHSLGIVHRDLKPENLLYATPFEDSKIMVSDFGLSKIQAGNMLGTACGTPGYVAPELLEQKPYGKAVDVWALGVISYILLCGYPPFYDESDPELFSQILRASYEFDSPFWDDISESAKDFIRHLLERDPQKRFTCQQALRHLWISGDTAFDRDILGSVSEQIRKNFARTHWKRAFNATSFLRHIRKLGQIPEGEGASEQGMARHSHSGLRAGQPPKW
Sequence of Myosin light chain kinase 2, skeletal/cardiac muscle (Homo sapiens) (Q9H1R3 whole entry): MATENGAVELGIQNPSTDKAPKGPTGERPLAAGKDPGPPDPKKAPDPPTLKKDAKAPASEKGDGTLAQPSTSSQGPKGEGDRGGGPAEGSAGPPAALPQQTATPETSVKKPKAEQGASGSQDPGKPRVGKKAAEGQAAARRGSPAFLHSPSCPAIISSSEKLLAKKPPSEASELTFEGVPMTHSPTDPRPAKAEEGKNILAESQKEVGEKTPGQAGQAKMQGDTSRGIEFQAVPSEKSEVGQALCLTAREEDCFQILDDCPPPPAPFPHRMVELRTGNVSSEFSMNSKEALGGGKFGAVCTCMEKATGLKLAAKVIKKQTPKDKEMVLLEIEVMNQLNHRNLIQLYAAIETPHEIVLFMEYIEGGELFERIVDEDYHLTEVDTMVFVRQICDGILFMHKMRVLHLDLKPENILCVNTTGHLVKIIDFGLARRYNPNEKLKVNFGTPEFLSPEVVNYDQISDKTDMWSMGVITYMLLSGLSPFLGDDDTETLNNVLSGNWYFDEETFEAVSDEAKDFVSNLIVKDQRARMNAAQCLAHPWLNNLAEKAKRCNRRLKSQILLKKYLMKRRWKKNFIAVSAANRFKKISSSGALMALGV

SMILES	residual activity [1]	residual activity [2]	residual activity [3]	residual activity [4]	residual activity [5]	residual activity [6]	residual activity [7]	residual activity [8]	residual activity [9]	residual activity [10]	residual activity [11]	residual activity [12]	residual activity [13]
CC(C)S(=O)(=O)c1ccc2nccc(Nc3ccc4scnc4c3)c2c1	94.8%	100%	97.5%	96.5%	91.3%	98.9%	87.8%	108%	103%	103%	85.2%	63.3%	105%
Cc1cc(-c2cnc(N)c3c(-c4ccc5scnc5c4)csc23)n(C)n1	88.1%	97.2%	85%	93.8%	92.9%	90.7%	98.5%	89.8%	94.2%	88.2%	106%	59.1%	100%
CNC(=O)c1ccc2c(c1)ncn2-c1ccc(CC(=O)OC(C)(C)C)cc1	88.9%	94.6%	96.1%	95.9%	98.5%	98%	90.2%	93.9%	97.1%	97.5%	108%	56.4%	102%
